Measured values published in patent US20200029563A1, “NOVEL 5-SUBSTITUTED IMIDAZOLYLMETHYLDIOXOLANE DERIVATIVES” (Bayer CropScience Aktiengesellschaft, priority 2016, published 2020).

Assay: Log P by HPLC on reversed phase columns (EEC directive 79/831 Annex V.A8)
Assay type: physicochemical
Settings: method [a]: LC-UV, acidic range, 0.1% formic acid in water and acetonitrile as eluent
Protocol: Measurement of Log P values was performed according to EEC directive 79/831 Annex V.A8 by HPLC (High Performance Liquid Chromatography) on reversed phase columns with the following methods: • ^[a] Log P value is determined by measurement of LC-UV, in an acidic range, with 0.1% formic acid in water and acetonitrile as eluent (linear gradient from 10% acetonitrile to 95% acetonitrile). • ^[b] Log P value is determined by measurement of LC-UV, in a neutral range, with 0.001 molar ammonium acetate solution in water and acetonitrile as eluent (linear gradient from 10% acetonitrile to 95% acetonitrile). • ^[c] Log P value is determined by measurement of LC-UV, in an acidic range, with 0.1% phosphoric acid and acetonitrile as eluent (linear gradient from 10% acetonitrile to 95% acetonitrile).
If more than one Log P value is available within the same method, all the values are given and separated by “+”.
Calibration was done with straight-chain alkan-2-ones (with 3 to 16 carbon atoms) with known Log P values (measurement of Log P values using retention times with linear interpolation between successive alkanones).

[1] = reversed phase HPLC columns, Table 1

Row | Compound | LogP (Table 1) | further results
1 | Fc1cncn1CC1(c2ccc(Oc3ccc(Cl)cc3)cc2C(F)(F)F)OCCO1 [Compound I-15] | 3.06^[a] | –
2 | C#Cc1cncn1CC1(c2ccc(Oc3ccc(Cl)cc3)cc2Cl)OCCO1 [Compound I-22] | 2.94^[a] | –
3 | C[Si](C)(C)C#Cc1cncn1CC1(c2ccc(Oc3ccc(Cl)cc3)cc2C(F)(F)F)OCCO1 [I-RP-04] | – | LogP (Table 2 (I-RP compounds)): 4.67 ^[a]
4 | Fc1cncn1CC1(c2ccc(Oc3ccc(Cl)cc3)cc2Cl)OCCO1 [Compound I-11] | 2.88^[a] | –
5 | Clc1ccc(Oc2ccc(C3(Cn4cncc4Cl)OCCO3)c(Cl)c2)cc1 [Compound I-01, 5-chloro-1-[[2-[2-chloro-4-(4-chlorophenoxy)phenyl]-1,3-dioxolan-2-yl]methyl]imidazole] | – | chromatographic logP [1]: 3.29
6 | C#Cc1cncn1CC1(c2ccc(Oc3ccc(Cl)cc3)cc2Cl)OCC(C)O1 (racemic) [Compound I-26] | 3.15 ^[a] | –
7 | Fc1cncn1CC1(c2ccc(Oc3ccc(Br)cc3)nc2C(F)(F)F)OCCO1 [Compound I-16] | 2.78^[a] | –
8 | Fc1cncn1CC1(c2ccc(Oc3ccc(Cl)cc3)nc2C(F)(F)F)OCCO1 [Compound I-18, 6-(4-chlorophenoxy)-3-[2-[(5-fluoroimidazol-1-yl)methyl]-1,3-dioxolan-2-yl]-2-(trifluoromethyl)pyridine] | – | chromatographic logP [1]: 2.42
9 | CC1COC(Cn2cncc2Br)(c2ccc(Oc3ccc(Cl)cc3)cc2Cl)O1 (racemic) [Compound I-23] | 3.68^[a] | –
10 | N#Cc1cncn1CC1(c2ccc(Oc3ccc(C(F)(F)F)cc3)cc2Cl)OCCO1 [Compound I-34] | 3.92 ^[a] | –
11 | C[Si](C)(C)C#Cc1ccc(Oc2ccc(C3(Cn4cncc4C#C[Si](C)(C)C)OCCO3)c(Cl)c2)cc1 [I-RP-02] | – | LogP (Table 2 (I-RP compounds)): 6.17 ^[a]
12 | Clc1cc(Oc2ccc(I)cc2)ccc1C1(Cn2cncc2Cl)OCCO1 [Compound I-03] | 3.82^[a] | –
13 | C[Si](C)(C)C#Cc1cncn1CC1(c2ccc(Oc3ccc(Cl)cc3)cc2Cl)OCCO1 [I-RP-01] | – | LogP (Table 2 (I-RP compounds)): 4.54 ^[a]
14 | C#Cc1ccc(Oc2ccc(C3(Cn4cncc4C#C)OCCO3)c(Cl)c2)cc1 [Compound I-25] | 2.76 ^[a] | –
15 | Clc1ccc(Oc2ccc(C3(Cn4cncc4Br)OCCO3)c(Cl)c2)cc1 [Compound I-02, 5-bromo-1-[[2-[2-chloro-4-(4-chlorophenoxy)phenyl]-1,3-dioxolan-2-yl]methyl]imidazole] | – | chromatographic logP [1]: 3.35
16 | FC(F)(F)c1cc(Oc2ccc(Cl)cc2)ccc1C1(Cn2cncc2Br)OCCO1 [Compound I-27] | 3.58 ^[a] | –
17 | Fc1nc(Oc2ccc(Cl)cc2)ccc1C1(Cn2cncc2F)OCCO1 [Compound I-17] | 2.34^[a] | –
18 | Fc1cncn1CC1(c2ccc(Oc3ccc(C(F)(F)F)nc3)nc2C(F)(F)F)OCCO1 [Compound I-19, 3-[2-[(5-fluoroimidazol-1-yl)methyl]-1,3-dioxolan-2-yl]-2-(trifluoromethyl)-6-[[6-(trifluoromethyl)-3-pyridyl]oxy]pyridine] | – | chromatographic logP [1]: 2.53
19 | FC(F)(F)c1cc(Oc2ccc(Cl)cc2)ccc1C1(Cn2cncc2Cl)OCCO1 [Compound I-04, 5-chloro-1-[[2-[4-(4-chlorophenoxy)-2-(trifluoromethyl)phenyl]-1,3-dioxolan-2-yl]methyl]imidazole] | – | chromatographic logP [1]: 3.75
20 | FC(F)(F)c1cc(Oc2ccc(Cl)nc2)ccc1C1(Cn2cncc2Cl)OCCO1 [Compound I-05] | 2.58^[a] | –

Row | Compound | LogP (Table 1) | further results
21 | CC1COC(Cn2cncc2Br)(c2ccc(Oc3ccc(C(F)(F)F)cc3)cc2Cl)O1 (racemic) [Compound I-31] | 3.85 ^[a] | –
22 | Clc1ccc(Oc2ccc(C3(Cn4cncc4Cl)OCCO3)c(Cl)c2)cn1 [Compound I-13] | 2.42^[a] | –
23 | N#Cc1cncn1CC1(c2ccc(Oc3ccc(Cl)cc3)cc2Cl)OCCO1 [Compound I-33] | 3.78 ^[a] | –
24 | CC1COC(Cn2cncc2C#N)(c2ccc(Oc3ccc(C(F)(F)F)cc3)cc2Cl)O1 (stereo not shown) [Compound I-32, 1-{[2-{2-chloro-4-[4-(trifluoromethyl)phenoxy]phenyl}-4-methyl-1,3-dioxolan-2-yl]methyl}-1H-imidazole-5-carbonitrile] | – | chromatographic logP [1]: 4.08
25 | FC(F)(F)c1cncn1CC1(c2ccc(Oc3ccc(Cl)cc3)cc2Cl)OCCO1 [Compound I-10] | 4.64^[a] | –
26 | C[Si](C)(C)C#Cc1cncn1CC1(c2ccc(Oc3ccc(C(F)(F)F)cc3)cc2Cl)OCCO1 [I-RP-05, 1-[(2-{2-chloro-4-[4-(trifluoromethyl)phenoxy]phenyl}-1,3-dioxolan-2-yl)methyl]-5-[(trimethylsilyl)ethynyl]-1H-imidazole] | – | chromatographic logP (Table 2 (I-RP compounds)): 4.59
27 | FC(F)(F)c1ccc(Oc2ccc(C3(Cn4cncc4Br)OCCO3)c(Cl)c2)cc1 [Compound I-29] | 3.44 ^[a] | –
28 | FC(F)(F)c1cc(Oc2ccc(Br)cc2)ccc1C1(Cn2cncc2Cl)OCCO1 [Compound I-06] | 3.77^[a] | –
29 | Clc1cc(Oc2ccc(Br)cc2)ccc1C1(Cn2cncc2Br)OCCO1 [Compound I-21] | 3.48^[a] | –
30 | CC1COC(Cn2cncc2Cl)(c2ccc(Oc3ccc(Cl)cc3)cc2Cl)O1 (mixture of isomers) [Compound I-09] | 3.64^[a] | –
31 | Clc1cc(Oc2ccc(Br)cc2)ccc1C1(Cn2cncc2Cl)OCCO1 [Compound I-07] | 3.53^[a] | –
32 | Clc1cc(Oc2ccc(I)cc2)ccc1C1(Cn2cncc2Br)OCCO1 [Compound I-08] | 3.76^[a] | –
33 | N#Cc1cncn1CC1(c2ccc(Oc3ccc(Cl)cc3)cc2C(F)(F)F)OCCO1 [Compound I-35] | 4.03 ^[a] | –
34 | C#Cc1cncn1CC1(c2ccc(Oc3ccc(C(F)(F)F)cc3)cc2Cl)OCCO1 [Compound I-30, 1-[(2-{2-chloro-4-[4-(trifluoromethyl)phenoxy]phenyl}-1,3-dioxolan-2-yl)methyl]-5-ethynyl-1H-imidazole] | – | chromatographic logP (Table 1): 3.04
35 | CC1COC(Cn2cncc2C#C[Si](C)(C)C)(c2ccc(Oc3ccc(Cl)cc3)cc2Cl)O1 (racemic) [I-RP-03] | – | LogP (Table 2 (I-RP compounds)): 4.90 ^[a]
36 | CC1COC(Cn2cncc2F)(c2ccc(Oc3ccc(Cl)cc3)cc2Cl)O1 (stereo not shown) [Compound I-12, 1-[[2-[2-chloro-4-(4-chlorophenoxy)phenyl]-4-methyl-1,3-dioxolan-2-yl]methyl]-5-fluoro-imidazole] | – | chromatographic logP [1]: 3.06
37 | Fc1cncn1CC1(c2ccc(Oc3ccc(Br)nc3)nc2C(F)(F)F)OCCO1 [Compound I-20] | 2.17^[a] | –
38 | C#Cc1cncn1CC1(c2ccc(Oc3ccc(Cl)cc3)cc2C(F)(F)F)OCCO1 [Compound I-28] | 3.13 ^[a] | –
39 | Clc1ccc(Oc2ccc(C3(Cn4cncc4Cl)OCCO3)c(Cl)c2)nc1 [Compound I-14] | 2.66^[a] | –
40 | C[Si](C)(C)C#Cc1ccc(Oc2ccc(C3(Cn4cncc4Br)OCCO3)c(Cl)c2)cc1 [Compound I-24] | 4.98 ^[a] | –
